Measured values: US10995091B2 (Proximagen, LLC, priority 2010, dated 2021)
pKi: −log10 of the molar value.

These molecules were tested against T1, Human CXCR4 transfected HEK293 cells (Homo sapiens, UniProt P61073) (assay: CXCR4 functional calcium assay (calcium flux FLIPR, antagonism of SDF1 response)). Conditions: CXCR4 functional activity, antagonism of SDF1 (EC50 concentration), read-out: CXCR4 fKi.
T1 construct: expressed in transfected cells; host or cells: HEK293
Type: cell-based
Description: The functional activity of test compounds was routinely tested by measuring the ability of compounds to antagonize CXCR4 activity in a dose dependent manner, using a calcium flux Fluorescent Imaging Plate Reader FLIPR assay.
Human CXCR4 transfected HEK293 cells were cultured in Dulbecco's modified Eagles medium containing 4.5 g/L glucose, L-glutamine, pyruvate, 50 µg/mL Geneticin and 250 µg/mL hygromycin B and maintained at 37° C. in a humidified, 5% CO2 controlled atmosphere. Subcultivations were performed every 2-3 d.
At confluence the cells were lifted using Ca^2+ and Mg^2+ free PBS/0.02% (w/v) EDTA, spun at 1000 rpm for 3 min and resuspended at 2.5×10^5 cells/mL. Cells were plated into a 384 well, poly-d-lysine coated, black with clear bottomed plate (Becton Dickinson) at 7500 cells/well. The plates were incubated overnight at 37° C. under 5% CO2. On the day of the experiment the cells were washed with incubation Buffer (HBSS containing 2.5 mM probenecid, 0.1% w/v BSA and 10 mM HEPES, pH 7.4 at 37° C.). After washing, the cells were loaded with Fluo-4 AM dye (Molecular probes) at 2 µM containing 0.48 µg/mL pluronic acid for 60 min at 37° C. under 5% CO2. After thorough washing with incubation buffer the cells were preincubated for 10 min at 37° C. before use.
A combined agonist/antagonist protocol was used to measure changes in intracellular calcium concentration. Compound (antagonist) was added to the cell plate using a Fluorometric Imaging Plate Reader (FLIPR) (Molecular Devices, Sunnyvale, Calif., USA). Basal fluorescence was recorded every second for 10 seconds prior to compound addition (10 μl) and fluorescence recorded every second for 1 min then every 6 seconds for a further 1 min. SDF1[…] (EC50 concentration) was then added using the FLIPR and fluorescence recorded as described above. Curve-fitting and parameter estimation were carried out using GraphPad Prism 4.0 (GraphPad Software Inc., San Diego, Calif.).

T1 sequence (P61073 whole entry): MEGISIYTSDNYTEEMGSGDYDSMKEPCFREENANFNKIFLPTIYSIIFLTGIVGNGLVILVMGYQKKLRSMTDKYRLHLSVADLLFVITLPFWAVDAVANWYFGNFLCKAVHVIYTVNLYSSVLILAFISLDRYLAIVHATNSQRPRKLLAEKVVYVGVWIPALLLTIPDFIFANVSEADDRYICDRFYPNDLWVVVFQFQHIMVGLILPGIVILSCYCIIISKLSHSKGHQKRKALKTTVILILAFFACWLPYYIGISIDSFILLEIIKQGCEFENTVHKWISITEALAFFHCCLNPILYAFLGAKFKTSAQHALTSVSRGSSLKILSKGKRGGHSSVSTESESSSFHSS

Structure (SMILES)	pKi
O=C(Nc1ccncc1)c1cccc(N2CCN(C3CCCN(Cc4ccc(F)cc4Cl)CC3)CC2)n1 (stereo not drawn) [Example 241, 6-(4-{1-[(2-Chloro-4-fluorophenyl)methyl]azepan-4-yl}piperazin-1-yl)-N-(pyridin-4-yl)pyridine-2-carboxamide]	7.00 to 7.70
O=C(NCC1CC1)c1cccc(N2CCCN(C3CCN(Cc4ccccc4)CC3)CC2)n1 [Example 129, 6-[4-(1-Benzylpiperidin-4-yl)-1,4-diazepan-1-yl]-N-(cyclopropylmethyl)pyridine-2-carboxamide]	6.00 to 6.30
CC(C)N1CCC(N2CCCN(c3cccc(-c4cc5ccccc5n4C)n3)CC2)CC1 [Example 95, 1-Methyl-2-(6-{4-[1-(propan-2-yl)piperidin-4-yl]-1,4-diazepan-1-yl}pyridine-2-yl)-1H-indole]	6.30 to 7.00
[2H]C1([2H])CCN(C2CCN(Cc3ccccc3Cl)CC2)CCN1c1cccc(C(=O)Nc2ccncc2)n1 [Example 180, 6-(4-{1-[(2-Chlorophenyl)methyl]piperidin-4-yl}-7,7-dihydrogenio-1,4-diazepan-1-yl)-N-(pyridin-4-yl)pyridine-2-carboxamide]	> 7.70
CC(C)N1CCC(N2CCCN(c3cccc(C(=O)NCc4cccnc4)n3)CC2)CC1C (stereo not drawn) [Example 215, 6-{4-[2-Methyl-1-(propan-2-yl)piperidin-4-yl]-1,4-diazepan-1-yl}-N-(pyridin-3-ylmethyl)pyridine-2-carboxamide]	7.00 to 7.70
O=C(NCC1CC1)c1cccc(N2CCCN(C3CCN(C4CCCC4F)CC3)CC2)n1 (stereo not drawn) [Example 73, N-(Cyclopropylmethyl)-6-{4-[1-(2-fluorocyclopentyl)piperidin-4-yl]-1,4-diazepan-1-yl}pyridine-2-carboxamide]	7.00 to 7.70
CCCc1nc(-c2cccc(N3CCCN(C4CCN([C@H](C)CC)CC4)CC3)n2)no1 [Example 154, 1-{1-[(2R)-Butan-2-yl]piperidin-4-yl}-4-[6-(5-propyl-1,2,4-oxadiazol-3-yl)pyridin-2-yl]-1,4-diazepane]	6.30 to 7.00
[2H]C1([2H])CCN(c2cccc(C(=O)Nc3ccncc3)n2)CCN1C1CCN(Cc2ccc(F)cc2Cl)CC1 [Example 203, 6-(4-{1-[(2-Chloro-4-fluorophenyl)methyl]piperidin-4-yl}-5,5-dihydrogenio-1,4-diazepan-1-yl)-N-(pyridin-4-yl)pyridine-2-carboxamide]	> 7.70
CC(C)N1CCCC(N2CCC(Oc3cccc(C(=O)Nc4ccncc4)n3)CC2)CC1 (stereo not drawn) [Example 221, 6-({1-[1-(Propan-2-yl)azepan-4-yl]piperidin-4-yl}oxy)-N-(pyridin-4-yl)pyridine-2-carboxamide]	6.30 to 7.00
CC(C)(C)N1CCC(N2CCCN(c3cccc(C(=O)NCC4CC4)n3)CC2)CC1 [Example 64, 6-[4-(1-tert-Butylpiperidin-4-yl)-1,4-diazepan-1-yl]-N-(cyclopropylmethyl)pyridine-2-carboxamide]	7.00 to 7.70
C[C@H](c1ccccc1)N1CCC(N2CCCN(c3cccc(C(=O)NCC4CC4)n3)CC2)CC1 [Example 74, N-(Cyclopropylmethyl)-6-(4-{1-[(1R)-1-phenylethyl]piperidin-4-yl}-1,4-diazepan-1-yl)pyridine-2-carboxamide]	6.30 to 7.00
CC(C)N1CCC(N2CCCN(c3cccc(-c4noc(CC(C)(C)C)n4)n3)CC2)CC1 [Example 160, 1-{6-[5-(2,2-Dimethylpropyl)-1,2,4-oxadiazol-3-yl]pyridine-2-yl}-4-[1-(propan-2-yl)piperidin-4-yl]-1,4-diazepane]	6.30 to 7.00
COc1ccc2nc(-c3cccc(N4CCCN(C5CCN(C(C)C)CC5)CC4)n3)[nH]c2c1 [Example 150, 6-Methoxy-2-(6-{4-[1-(propan-2-yl)piperidin-4-yl]-1,4-diazepan-1-yl}pyridine-2-yl)-1H-1,3-benzodiazole]	7.00 to 7.70
C[C@H](c1ccc(F)cc1)N1CCC(N2CCCN(c3cccc(C(=O)NCC4CC4)n3)CC2)CC1 [Example 75, N-(Cyclopropylmethyl)-6-(4-{1-[(1R)-1-(4-fluorophenyl)ethyl]piperidin-4-yl}-1,4-diazepan-1-yl)pyridine-2-carboxamide]	6.30 to 7.00
CC(CC(F)(F)F)N1CCC(N2CCCN(c3cccc(C(=O)NCc4cccnc4)n3)CC2)CC1 (stereo not drawn) [Example 90, N-(Pyridin-3-ylmethyl)-6-{4-[1-(4,4,4-trifluorobutan-2-yl)piperidin-4-yl]-1,4-diazepan-1-yl}pyridine-2-carboxamide]	7.00 to 7.70
CC(C)N1CCC(N2CCCN(c3cccc(-c4cc5ccncc5[nH]4)n3)CC2)CC1 [Example 98, 1-[1-(Propan-2-yl)piperidin-4-yl]-4-(6-{1H-pyrrolo[2,3-c]pyridine-2-yl}pyridine-2-yl)-1,4-diazepane]	7.00 to 7.70
CC(C)N1CCC(N2CCCN(c3cccc(-c4cc5ncccc5[nH]4)n3)CC2)CC1 [Example 96, 1-[1-(Propan-2-yl)piperidin-4-yl]-4-(6-{1H-pyrrolo[3,2-b]pyridine-2-yl}pyridine-2-yl)-1,4-diazepane]	7.00 to 7.70
Cc1ccc2nc(-c3cccc(N4CCCN(C5CCN(C(C)C)CC5)CC4)n3)[nH]c2c1 [Example 148, 6-Methyl-2-(6-{4-[1-(propan-2-yl)piperidin-4-yl]-1,4-diazepan-1-yl}pyridine-2-yl)-1H-1,3-benzodiazole]	7.00 to 7.70
CC(C)N1CCC(N2CCCN(c3cccc(C(=O)Nc4ccccn4)n3)CC2)CC1 [Example 28, 6-{4-[1-(Propan-2-yl)piperidin-4-yl]-1,4-diazepan-1-yl}-N-(pyridin-2-yl)pyridine-2-carboxamide]	> 7.70
Cc1nc(-c2cccc(N3CCCN(C4CCN(C(C)C)CC4)CC3)n2)[nH]c1C1CC1 [Example 121, 1-[6-(4-Cyclopropyl-5-methyl-1H-imidazol-2-yl)pyridine-2-yl]-4-[1-(propan-2-yl)piperidin-4-yl]-1,4-diazepane]	> 7.70
Cc1ccccc1CN1CCC(N2CCCN(c3cccc(C(=O)NCC4CC4)n3)CC2)CC1 [Example 131, N-(Cyclopropylmethyl)-6-(4-{1-[(2-methylphenyl)methyl]piperidin-4-yl}-1,4-diazepan-1-yl)pyridine-2-carboxamide]	6.30 to 7.00
CC(C)N1CCC(CN[C@@H]2CCN(c3cccc(-c4ncc(C5CC5)[nH]4)n3)C2)CC1 [Example 223, (3R)-1-[6-(4-Cyclopropyl-1H-imidazol-2-yl)pyridin-2-yl]-N-{[1-(propan-2-yl)piperidin-4-yl]methyl}pyrrolidin-3-amine]	6.00 to 6.30
CC(C)N1CCO[C@H](CN2CCCN(c3cccc(C(=O)Nc4ccncc4)n3)CC2)C1 [Example 244, 6-(4-{[(2R)-4-(Propan-2-yl)morpholin-2-yl]methyl}-1,4-diazepan-1-yl)-N-(pyridin-4-yl)pyridine-2-carboxamide]	7.00 to 7.70
CC(C)N1CCC(N2CCCN(c3cccc(C(=O)NCCF)n3)CC2)CC1 [Example 8, N-(2-Fluoroethyl)-6-{4-[1-(propan-2-yl)piperidin-4-yl]-1,4-diazepan-1-yl}pyridine-2-carboxamide]	6.30 to 7.00
COc1ccc2[nH]c(-c3cccc(N4CCCN(C5CCN(C(C)C)CC5)CC4)n3)cc2c1 [Example 105, 5-Methoxy-2-(6-{4-[1-(propan-2-yl)piperidin-4-yl]-1,4-diazepan-1-yl}pyridine-2-yl)-1H-indole]	6.00 to 6.30
C[C@H](N1CCC(N2CCCN(c3cccc(C(=O)NCc4nccs4)n3)CC2)CC1)C(F)(F)F [Example 94, N-(1,3-Thiazol-2-ylmethyl)-6-(4-{1-[(2S)-1,1,1-trifluoropropan-2-yl]piperidin-4-yl}-1,4-diazepan-1-yl)pyridine-2-carboxamide]	6.30 to 7.00
Cc1ccc(N2CCCN(C3CCN(Cc4ccccc4Cl)CC3)CC2)nc1 [Example 263, 1-{1-[(2-Chlorophenyl)methyl]piperidin-4-yl}-4-(5-methylpyridin-2-yl)-1,4-diazepane]	6.30 to 7.00
CC(C)CN(C)C(=O)c1cccc(N2CCCN(C3CCN(C(C)C)CC3)CC2)n1 [Example 17, N-Methyl-N-(2-methylpropyl)-6-{4-[1-(propan-2-yl)piperidin-4-yl]-1,4-diazepan-1-yl}pyridine-2-carboxamide]	6.00 to 6.30
CC[C@@H](C)N1CCC(N2CCCN(c3cccc(C(=O)Nc4ccncc4)n3)CC2)CC1 [Example 78, 6-(4-{1-[(2R)-Butan-2-yl]piperidin-4-yl}-1,4-diazepan-1-yl)-N-(pyridine-4-yl)pyridine-2-carboxamide]	> 7.70
[2H]C1([2H])CCN(C2CCN(C(C)C)CC2)CCN1c1cccc(C(=O)NCC2CC2)n1 [Example 181, N-(Cyclopropylmethyl)-6-{7,7-dihydrogenio-4-[1-(propan-2-yl)piperidin-4-yl]-1,4-diazepan-1-yl}pyridine-2-carboxamide]	7.00 to 7.70
